Blank lines part the entries; values can stand above or below the compound they belong to.
Experiments:
[1] = biological target: T1, RARγ (Homo sapiens, UniProt P13631); assay: ligand binding assay, RARγ; settings: for Ki: read-out: RAR Bind. Ki γ; for Kd: Table 9 (Formula F), read-out: RAR γ Kd
T1 sequence (P13631 1-454): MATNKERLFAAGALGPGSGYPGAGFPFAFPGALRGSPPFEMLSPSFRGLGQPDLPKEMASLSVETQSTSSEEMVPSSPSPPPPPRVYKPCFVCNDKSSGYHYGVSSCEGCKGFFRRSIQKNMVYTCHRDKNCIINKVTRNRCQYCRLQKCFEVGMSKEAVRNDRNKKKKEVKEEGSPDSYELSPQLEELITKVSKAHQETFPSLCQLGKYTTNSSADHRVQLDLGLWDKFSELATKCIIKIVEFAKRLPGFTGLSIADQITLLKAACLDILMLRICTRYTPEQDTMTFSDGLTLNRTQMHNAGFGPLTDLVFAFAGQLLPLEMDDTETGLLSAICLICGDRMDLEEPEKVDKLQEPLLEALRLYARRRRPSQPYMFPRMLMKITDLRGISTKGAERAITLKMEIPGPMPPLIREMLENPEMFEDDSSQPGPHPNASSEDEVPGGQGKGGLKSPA
Description: (§1) Specifically, one such assay is a chimeric receptor transactivation assay which tests for agonist-like activity in the R RAPE and RAR7 receptor subtypes, and which is based on work published by Feigner, P. L. and Holm, M (1989) Focus, 112 is described in detail in U.S. Pat. No. 5,455,265. The specification of U.S. Pat. No. 5,455,265 is hereby expressly incorporated by reference. A holoreceptor transactivation assay and a ligand binding assay which measure the antagonist/agonist like activity of the compounds of the invention, or their ability to bind to the several retinoid receptor subtypes, respectively, are described in published PCT Application No. WO WO93/11755 (particularly on pages 30-33 and 37-41) published on Jun. 24, 1993, the specification of which is also incorporated herein by reference. A detailed experimental procedure for holoreceptor transactivations has been described by Heyman et al. Cell 68, 397-406, (1992); Allegretto et al. J. Biol. Chem. 268, 26625-26633, and Mangelsdorf et al. The Retinoids: Biology, Chemistry and Medicine, pp 319-349, Raven Press Ltd., New York, which are expressly incorporated herein by reference. The results obtained in this assay are expressed in EC50 numbers, as they are also in the chimeric receptor transactivation assay. The results of the ligand binding assay are expressed in Ki numbers. (See Cheng et al. Biochemical Pharmacology Vol. 22 pp 3099-3108, expressly incorporated herein by reference.)
(§2) Generally speaking, in the tables disclosing the results of transactivation and binding assays the numbers in parentheses indicate efficacy as a percentage compared to the standard compound, (2E,4E,1′S,2′S)-3-methyl-5-[2′-methyl-2′-(5,5,8,8-tetramethyl-5,6,7,8-tetrahydro-naphthalen-2-yl)cyclopropyl]-penta-2,4-dienoic acid and the other numbers indicate the measured EC50 and K; in nanomolar concentration.

[2] = biological target: T2, RARα (Homo sapiens, UniProt P10276); assay: chimeric receptor transactivation assay, RARα; format: cell-based; settings: for EC50: chimeric receptor transactivation, read-out: RAR Trans. EC50 α; for Emax: percentage compared to the standard compound, read-out: RAR Trans. efficacy (number in parentheses) α
T2 sequence (P10276 183-417 limits assumed): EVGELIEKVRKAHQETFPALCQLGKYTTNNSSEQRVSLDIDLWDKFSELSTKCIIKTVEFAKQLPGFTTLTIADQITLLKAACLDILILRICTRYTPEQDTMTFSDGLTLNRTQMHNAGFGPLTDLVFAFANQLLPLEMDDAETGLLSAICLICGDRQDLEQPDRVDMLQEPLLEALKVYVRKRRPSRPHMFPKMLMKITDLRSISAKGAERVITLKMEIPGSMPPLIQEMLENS
Description: as §1
Efficacy in a transactivation assay is expressed as a percentage of the maximum potency attained by the compound compared to a standard which, in this case, is the compound named (2E,4E,1′S,2′S)-3-methyl-5-[2′-methyl-2′-(5,5,8,8-tetramethyl-5,6,7,8-tetrahydro-naphthalen-2-yl)-cyclopropyl]-penta-2,4-dienoic acid. This standard compound is described in U.S. Pat. No. 6,114,533.
The specification of this application for patent is organized in several sections in accordance with structural Formulas A through F each of which discloses a group of preferred compounds within the scope of the invention. Tables that disclose the activity of certain exemplary compounds of the invention in the above-described RXR receptor transactivation and binding assays are found in the corresponding sections. […] The transactivation data pertaining to the activation of RXR receptors were obtained in the holoreceptor assay.
as §2

[3] = test system: ob/ob mice; assay: serum glucose, triglycerides and T4 in ob/ob mice, drug mixed in control diet over 7 days; format: in vivo; settings: 30 mg/kg per day in diet; for Glucose Day 0 / Triglycerides Day 0: day 0 (pre-treatment)
[4] = biological target: T3, RXRγ (UniProt P28705); assay: ligand binding assay, RXRγ; settings: for Kd: Table 9 (Formula F), read-out: RXR γ Kd
T3 sequence (P28705 1-463): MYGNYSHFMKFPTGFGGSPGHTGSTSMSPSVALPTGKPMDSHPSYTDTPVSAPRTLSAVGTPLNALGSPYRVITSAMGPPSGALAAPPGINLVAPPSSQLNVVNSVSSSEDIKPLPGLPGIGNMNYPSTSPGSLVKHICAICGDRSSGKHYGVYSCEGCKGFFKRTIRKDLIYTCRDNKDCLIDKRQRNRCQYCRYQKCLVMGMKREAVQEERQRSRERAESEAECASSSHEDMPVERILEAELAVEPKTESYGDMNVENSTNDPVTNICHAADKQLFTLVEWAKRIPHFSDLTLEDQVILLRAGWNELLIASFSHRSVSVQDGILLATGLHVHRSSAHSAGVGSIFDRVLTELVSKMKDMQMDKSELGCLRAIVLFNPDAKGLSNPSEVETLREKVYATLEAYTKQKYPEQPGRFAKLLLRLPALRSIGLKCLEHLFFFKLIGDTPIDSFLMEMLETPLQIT
Description: as §1, §2

[5] = test system: ob/ob mice; assay: serum glucose, triglycerides and T4 in diabetic mice, oral gavage in corn oil daily for seven days; format: in vivo; settings: 80 mg/kg, corn oil vehicle (second Table 9)

Structure (SMILES): COc1cc2c(cc1\C(C)=C/C=C/C(C)=C/C(=O)O)C(C(C)C)=CC(C)(C)O2 [Compound 43, 7-(4-Isopropyl-7-methoxy-2,2-dimethyl-2H-chromen-6-yl)-3-methyl-octa-2E,4E,6Z-trienoic acid]
- Ki [1]: 2500 nM
- EC50 [2]: 13 nM
- Emax [2]: 5%

Structure (SMILES): CCOc1cc2c(cc1\C(C)=C/C=C/C(C)=C/C(=O)O)C(CC)=CC(C)(C)O2 [Compound 45, 7-(7-Ethoxy-4-ethyl-2,2-dimethyl-2H-chromen-6-yl)-3-methyl-octa-2E,4E,6Z-trienoic acid]
- Ki [1]: 2300 nM
- EC50 [2]: 121 nM
- Emax [2]: 6%

Structure (SMILES): CCOc1c(\C(C)=C/C=C/C(C)=C/C(=O)O)cc2c(c1Cl)OC(C)(C)C=C2C(C)C [Compound 50, 7-(8-Chloro-4-isopropyl-7-ethoxy-2,2-dimethyl-2H-chromen-6-yl)-3-methyl-octa-2E,4E,6Z-trienoic acid]
- Glucose Day 3, 3 h [3]: 209 mg/dL
- Glucose Day 6, 3 h [3]: 237 mg/dL
- T4 Day 7 [3]: 4.5 µg/dL
- Triglycerides Day 3, 3 h [3]: 90 ± 33 mg/dL
- Glucose Day 0 [3]: 288 mg/dL
- Triglycerides Day 0 [3]: 122 mg/dL
- Ki [1]: 5900 nM

Structure (SMILES): CCOc1cc2c(cc1\C(C)=C(F)/C=C/C(C)=C/C(=O)O)C(c1ccccc1)=CC(C)(C)O2 [Compound 127, (2E,4E,6E)-7-(7-Ethoxy-2,2-dimethyl-4-phenyl-2H-chromen-6-yl)-6-fluoro-3-methyl-octa-2,4,6-trienoic acid]
- Ki [1]: 2600 nM
- EC50 [2]: 245 nM
- Emax [2]: 26%

Structure (SMILES): CCCOc1cc2c(cc1\C(C)=C(F)/C=C/C(C)=C/C(=O)O)C(c1ccccc1)=CC(C)(C)O2 [Compound 128, (2E,4E,6E)-7-(2,2-Dimethyl-4-phenyl-7-propoxy-2H-chromen-6-yl)-6-fluoro-3-methyl-octa-2,4,6-trienoic acid]
- Ki [1]: 759 nM
- EC50 [2]: 14 nM
- Emax [2]: 25%

Structure (SMILES): CC/C(=C(F)/C=C/C(C)=C/C(=O)O)c1cc2c(cc1OC)OC(C)(C)C=C2C [Compound 129, 6-Fluoro-7-(7-methoxy-2,2,4-trimethyl-2H-chromen-6-yl)-3-methyl-nona-2E,4E,6E-trienoic acid]
- Ki [1]: 4700 nM
- EC50 [2]: > 10000 nM

Structure (SMILES): CC/C(=C(F)/C=C/C(C)=C/C(=O)O)c1cc2c(cc1OC)OC(C)(C)C=C2C(C)C [Compound 130, 6-Fluoro-7-(4-isopropyl-7-methoxy-2,2-dimethyl-2H-chromen-6-yl)-3-methyl-nona-2E,4E,6E-trienoic acid]
- Ki [1]: 2700 nM
- EC50 [2]: 218 nM
- Emax [2]: 8%

Structure (SMILES): CC/C(=C(F)/C=C/C(C)=C/C(=O)O)c1cc2c(c(Cl)c1OC)OC(C)(C)C=C2C(C)C [Compound 171, 7-(8-Chloro-4-isopropyl-7-methoxy-2,2-dimethyl-2H-chromen-6-yl)-6-fluoro-3-methyl-nona-2E,4E,6E-trienoic acid]
- Ki [1]: 4900 nM
- EC50 [2]: > 1000 nM

Second part, led by results:

- T4 Day 7 [3]: 4.5 µg/dL
- Ki [1]: 1400 nM
Structure (SMILES): CCOc1c(\C(C)=C(F)/C=C/C(C)=C/C(=O)O)cc2c(c1Cl)OC(C)(C)C=C2C(C)C [Compound 172, 7-(8-Chloro-4-isopropyl-7-ethoxy-2,2-dimethyl-2H-chromen-6-yl)-6-fluoro-3-methyl-octa-2E,4E,6E-trienoic acid]
- Glucose Day 3, 3 h [3]: 193 mg/dL
- Glucose Day 6, 3 h [3]: 206 mg/dL
- Triglycerides Day 3, 3 h [3]: 68 ± 22 mg/dL
- Glucose Day 0 [3]: 292 mg/dL
- Triglycerides Day 0 [3]: 107 mg/dL

- Ki [1]: 2200 nM
- EC50 [2]: 29 nM
- Emax [2]: 10%
Structure (SMILES): CCOc1cc2c(cc1\C(CC)=C(F)/C=C/C(C)=C/C(=O)O)C(CC)=CCC2(C)C [Compound A-78, (2E,4E,6E)-7-(3-Ethoxy-8-ethyl-5,5-dimethyl-5,6-dihydro-naphthalen-2-yl)-6-fluoro-3-methyl-nona-2,4,6-trienoic acid]

- Ki ([4]; read-out: RXR Bind Ki γ): 88 nM
- Ki [1]: 3500 nM
Structure (SMILES): CCOc1cc2c(cc1\C(C)=C(F)/C=C/C(C)=C/C(=O)O)C(C(C)C)=CCC2(C)C [Compound A-79, (2E,4E,6E)-6-Fluoro-3-(4,4-dimethylethoxy-1-isopropyl-3,4-dihydronaphthalen-7-yl)-3-methyl-2.4,6-octa-trienoic acid]

- T4 Day 7 [5]: 2.7 µg/dL
- Kd [4]: 29 nM
- Kd [1]: 507 nM
Structure (SMILES): CCOc1c(\C(CC)=C(F)/C=C/C(C)=C/C(=O)O)cc2c(c1Br)C(C)(C)CC=C2C(C)C [Compound A-170, (2E,4E,6E)-7-(4-Bromo-3-ethoxy-8-isopropyl-5,5-dimethyl-5,6-dihydro-naphthalen-2-yl)-6-fluoro-3-methyl-nona-2,4,6-trienoic acid]
- Glucose Day 3, 3 h [5]: 294 mg/dL
- Glucose Day 6, 3 h [5]: 255 mg/dL
- Triglycerides Day 3, 3 h [5]: 195 mg/dL
- Glucose Day 0 ([5]; day 0 (pre-treatment)): 423 mg/dL
- Triglycerides Day 0 ([5]; day 0 (pre-treatment)): 168 mg/dL

- Kd [4]: 221 nM
- Kd [1]: 834 nM
Structure (SMILES): CC(/C=C/C(F)=C(/C)c1cc2c(c(Br)c1OC(C)C)C(C)(C)CC=C2C(C)C)=C\C(=O)O [Compound A-172, (2E,4E,6E)-7-(4-Bromo-3-isopropoxy-8-isopropyl-5,5-dimethyl-5,6-dihydro-naphthalen-2-yl)-6-fluoro-3-methyl-octa-2,4,6-trienoic acid]

- Kd [4]: 34 nM
- Kd [1]: 1600 nM
Structure (SMILES): CCOc1c(\C(C)=C(F)/C=C/C(C)=C/C(=O)O)cc2c(c1Br)C(C)(C)CC=C2C(C)(C)C [Compound A-174, (2E,4E,6E)-7-(4-Bromo-8-tert-butyl-3-ethoxy-5,5-dimethyl-5,6-dihydro-naphthalen-2-yl)-6-fluoro-3-methyl-octa-2,4,6-trienoic acid]

- Kd [4]: 122 nM
- Kd [1]: 517 nM
Structure (SMILES): CCOc1c(\C(CC)=C(F)/C=C/C(C)=C/C(=O)O)cc2c(c1Br)C(C)(C)CC=C2C(C)CC (stereo not shown) [Compound A-176, (2E,4E,6E)-7-(4-Bromo-8-sec-butyl-3-ethoxy-5,5-methyl-5,6-dihydro-naphthalen-2-yl)-6-fluoro-3-methyl-nona-2,4,6-trienoic acid]

Source: US6887896B1, “7-[(7-Alkoxy)-chrom-3-en-6-yl]-heptatrienoic acid and 7-[(3-alkoxy)-5,6-dihydronaphthalen-2-yl]-heptatrienoic acid derivatives having serum glucose reducing activity” (Allergan, Inc., priority 2003, dated 2005)
